Measured values from article PMC7305236, “The atypical chemokine receptor ACKR3/CXCR7 is a broad-spectrum scavenger for opioid peptides” (Nature Communications, 2020).
Where two headings read alike, the source gives them in different places.

Experiments:
Parameters in all cases: dose or concentration left out as unconfirmed
CXCR4 = biological target: T1, CXCR4 (Homo sapiens, UniProt P61073); assay: cell-based; settings: Figure S2a, read-out: CXCR4 activity, ctrl+ = 100
T1 construct: expressed in transfected cells; host or cells: U87, transient cotransfection of pNBe vectors

ACKR3 = ACKR3 (Homo sapiens, UniProt P25106); assay: cell-based; settings: read-out: ACKR3 activity, ctrl+ = 100, Figure S2a
CCR5 = biological target: T2, CCR5 (Homo sapiens, UniProt P51681); assay: Figure S2a opioid peptide screen on chemokine receptors; type: cell-based
T2 construct: expressed in transfected cells

CCR9 = biological target: T3, CCR9 (Homo sapiens, UniProt P51686); assay: as above; type: cell-based
T3 construct: expressed in transfected cells
T3 sequence (P51686 1-369): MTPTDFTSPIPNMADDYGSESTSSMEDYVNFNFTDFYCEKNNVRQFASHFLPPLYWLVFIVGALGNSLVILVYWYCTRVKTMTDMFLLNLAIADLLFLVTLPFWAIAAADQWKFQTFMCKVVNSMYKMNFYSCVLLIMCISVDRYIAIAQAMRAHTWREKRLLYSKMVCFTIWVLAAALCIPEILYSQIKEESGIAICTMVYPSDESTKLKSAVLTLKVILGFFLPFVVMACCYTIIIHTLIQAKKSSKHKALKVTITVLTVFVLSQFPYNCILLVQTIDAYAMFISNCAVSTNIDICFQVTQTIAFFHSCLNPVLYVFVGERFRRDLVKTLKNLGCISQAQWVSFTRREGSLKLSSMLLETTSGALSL

CXCR3A = biological target: T4, CXCR3A (Homo sapiens, UniProt P49682); assay: as above; type: cell-based
T4 construct: expressed in transfected cells; host or cells: U87 cells
T4 sequence (P49682 1-368): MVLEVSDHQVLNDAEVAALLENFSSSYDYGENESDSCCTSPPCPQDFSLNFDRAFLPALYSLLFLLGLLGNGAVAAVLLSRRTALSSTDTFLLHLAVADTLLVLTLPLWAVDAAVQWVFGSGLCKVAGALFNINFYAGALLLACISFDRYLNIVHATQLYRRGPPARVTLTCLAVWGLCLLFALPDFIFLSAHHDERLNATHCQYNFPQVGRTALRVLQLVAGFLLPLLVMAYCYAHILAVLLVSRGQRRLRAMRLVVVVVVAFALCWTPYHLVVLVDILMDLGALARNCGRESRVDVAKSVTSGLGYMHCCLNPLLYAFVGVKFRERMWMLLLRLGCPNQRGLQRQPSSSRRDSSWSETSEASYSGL

CXCR5 = biological target: T5, CXCR5 (Homo sapiens, UniProt P32302); assay: as above; type: cell-based
T5 construct: expressed in transfected cells
T5 sequence (P32302 1-372): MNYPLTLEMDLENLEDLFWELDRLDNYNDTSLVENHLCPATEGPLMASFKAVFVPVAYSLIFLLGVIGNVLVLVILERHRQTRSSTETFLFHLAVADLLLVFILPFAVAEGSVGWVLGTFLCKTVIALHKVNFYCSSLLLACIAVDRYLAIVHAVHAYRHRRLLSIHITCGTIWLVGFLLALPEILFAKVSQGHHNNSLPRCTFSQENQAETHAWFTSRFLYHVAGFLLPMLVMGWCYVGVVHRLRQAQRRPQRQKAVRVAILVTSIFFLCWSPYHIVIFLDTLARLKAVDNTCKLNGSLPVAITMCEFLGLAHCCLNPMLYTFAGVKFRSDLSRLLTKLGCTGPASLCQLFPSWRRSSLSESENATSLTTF

CXCR2 = biological target: T6, CXCR2 (Homo sapiens, UniProt P25025); assay: as above; type: cell-based
T6 construct: expressed in transfected cells
T6 sequence (P25025 1-360): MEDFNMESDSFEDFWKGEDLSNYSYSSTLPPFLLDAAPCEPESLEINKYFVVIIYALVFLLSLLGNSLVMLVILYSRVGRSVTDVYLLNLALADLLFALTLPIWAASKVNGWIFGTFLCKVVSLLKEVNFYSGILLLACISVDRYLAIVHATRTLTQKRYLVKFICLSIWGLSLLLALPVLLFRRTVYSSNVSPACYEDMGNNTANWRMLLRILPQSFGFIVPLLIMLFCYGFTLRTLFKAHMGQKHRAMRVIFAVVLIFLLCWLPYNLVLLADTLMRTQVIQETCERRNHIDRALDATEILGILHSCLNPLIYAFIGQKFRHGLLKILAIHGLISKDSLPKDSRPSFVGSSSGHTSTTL

ACKR4 = biological target: T7, ACKR4 (Homo sapiens, UniProt Q9NPB9); assay: as above; settings: read-out: ACKR4 activity, ctrl+ = 100, Figure S2a
T7 sequence (Q9NPB9 1-350): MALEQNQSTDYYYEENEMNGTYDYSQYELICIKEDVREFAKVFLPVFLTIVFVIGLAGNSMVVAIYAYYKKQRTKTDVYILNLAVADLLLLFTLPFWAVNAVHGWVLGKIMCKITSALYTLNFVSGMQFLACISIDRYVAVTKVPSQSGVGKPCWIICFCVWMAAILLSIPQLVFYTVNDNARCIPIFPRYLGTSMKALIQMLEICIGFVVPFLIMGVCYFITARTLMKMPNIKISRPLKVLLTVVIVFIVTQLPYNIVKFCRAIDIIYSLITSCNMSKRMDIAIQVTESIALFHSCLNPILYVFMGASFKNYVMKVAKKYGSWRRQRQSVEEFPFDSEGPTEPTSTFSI

CXCR6 = biological target: T8, CXCR6 (Homo sapiens, UniProt O00574); assay: as above; type: cell-based
T8 construct: expressed in transfected cells

[1] = replicate 1, read-out: CCR5 activity, ctrl+ = 100
[2] = replicate 2, read-out: CCR5 activity, ctrl+ = 100
[3] = replicate 1, read-out: CCR9 activity, ctrl+ = 100
[4] = replicate 2, read-out: CCR9 activity, ctrl+ = 100
[5] = replicate 1, read-out: CXCR3A activity, ctrl+ = 100
[6] = replicate 2, read-out: CXCR3A activity, ctrl+ = 100
[7] = replicate 1, read-out: CXCR5 activity, ctrl+ = 100
[8] = replicate 2, read-out: CXCR5 activity, ctrl+ = 100
[9] = replicate 1, read-out: CXCR2 activity, ctrl+ = 100
[10] = replicate 2, read-out: CXCR2 activity, ctrl+ = 100
[11] = replicate 1, read-out: CXCR6 activity, ctrl+ = 100
[12] = replicate 2, read-out: CXCR6 activity, ctrl+ = 100

T8 sequence (O00574 whole entry): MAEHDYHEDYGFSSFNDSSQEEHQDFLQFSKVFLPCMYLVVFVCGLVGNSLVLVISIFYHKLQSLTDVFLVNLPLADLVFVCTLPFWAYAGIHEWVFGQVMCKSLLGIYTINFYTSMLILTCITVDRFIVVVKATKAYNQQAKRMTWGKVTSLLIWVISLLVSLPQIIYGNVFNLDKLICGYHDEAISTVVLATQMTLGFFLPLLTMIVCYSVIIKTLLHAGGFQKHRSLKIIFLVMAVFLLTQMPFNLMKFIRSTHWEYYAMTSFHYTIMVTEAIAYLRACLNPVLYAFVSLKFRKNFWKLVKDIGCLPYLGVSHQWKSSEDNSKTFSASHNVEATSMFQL
T2 sequence (P51681 whole entry): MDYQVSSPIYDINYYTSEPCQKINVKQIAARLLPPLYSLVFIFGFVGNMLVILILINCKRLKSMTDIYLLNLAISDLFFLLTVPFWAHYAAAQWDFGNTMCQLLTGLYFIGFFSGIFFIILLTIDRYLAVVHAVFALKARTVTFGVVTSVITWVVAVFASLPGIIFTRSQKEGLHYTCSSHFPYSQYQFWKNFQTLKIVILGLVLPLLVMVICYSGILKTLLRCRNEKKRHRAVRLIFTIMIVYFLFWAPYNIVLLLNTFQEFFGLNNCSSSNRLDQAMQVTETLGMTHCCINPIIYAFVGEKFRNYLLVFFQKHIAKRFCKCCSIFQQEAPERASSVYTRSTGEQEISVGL
T1 sequence (P61073 whole entry): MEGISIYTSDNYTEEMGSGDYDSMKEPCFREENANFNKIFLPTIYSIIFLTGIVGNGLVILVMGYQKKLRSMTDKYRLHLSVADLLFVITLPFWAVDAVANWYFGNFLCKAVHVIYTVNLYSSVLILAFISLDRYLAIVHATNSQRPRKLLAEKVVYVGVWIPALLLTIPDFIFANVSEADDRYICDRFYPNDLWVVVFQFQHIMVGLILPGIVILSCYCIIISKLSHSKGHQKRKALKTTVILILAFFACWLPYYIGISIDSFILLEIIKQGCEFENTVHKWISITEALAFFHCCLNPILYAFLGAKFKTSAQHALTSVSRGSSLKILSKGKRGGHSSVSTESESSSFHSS
Sequence of ACKR3 (P25106 whole entry): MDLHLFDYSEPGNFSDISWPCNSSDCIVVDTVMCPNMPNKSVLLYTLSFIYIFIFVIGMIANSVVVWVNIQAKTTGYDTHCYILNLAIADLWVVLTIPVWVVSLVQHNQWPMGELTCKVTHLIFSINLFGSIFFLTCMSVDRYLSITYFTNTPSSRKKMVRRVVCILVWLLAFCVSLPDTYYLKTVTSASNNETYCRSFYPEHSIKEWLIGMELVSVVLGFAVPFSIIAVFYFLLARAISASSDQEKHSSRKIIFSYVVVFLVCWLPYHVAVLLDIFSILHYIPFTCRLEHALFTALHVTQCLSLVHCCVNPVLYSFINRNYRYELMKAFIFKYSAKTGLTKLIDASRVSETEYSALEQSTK

Structure (SMILES) | activation (CXCR4; replicate 1) | activation (CXCR4; replicate 2) | activation (ACKR3; replicate 2) | activation (CCR5; [1]) | activation (CCR5; [2]) | activation (CCR9; [3]) | activation (CCR9; [4]) | activation (CXCR3A; [5]) | activation (CXCR3A; [6]) | activation (CXCR5; [7]) | activation (CXCR5; [8]) | activation (CXCR2; [9]) | activation (CXCR2; [10]) | activation (ACKR4; replicate 1) | activation (ACKR4; replicate 2) | activation (CXCR6; [11]) | activation (CXCR6; [12]) | activation (ACKR3; replicate 1)
CC(C)C[C@H](NC(=O)[C@H](CCCCN)NC(=O)[C@H](CCCN=C(N)N)NC(=O)[C@H](C)NC(=O)[C@H](CO)NC(=O)[C@H](CCCCN)NC(=O)[C@H](CCCN=C(N)N)NC(=O)[C@H](C)NC(=O)CNC(=O)[C@@H](NC(=O)[C@H](Cc1ccccc1)NC(=O)CNC(=O)CNC(=O)[C@@H](N)Cc1ccccc1)[C@@H](C)O)C(=O)N[C@@H](C)C(=O)N[C@@H](CC(N)=O)C(=O)N[C@@H](CCC(N)=O)C(=O)O [Nociceptin] | 3.24% | -19.8% | 1.08% | 1.59% | -0.199% | 0.361% | 3.44% | -2.21% | -5.51% | -2.94% | -7.28% | -2.08% | -14.7% | -1% | -5.23% | -0.607% | -0.718% | 
CC[C@H](C)[C@H](NC(=O)[C@H](CCCNC(=N)N)NC(=O)[C@H](CCCNC(=N)N)NC(=O)[C@H](CC(C)C)NC(=O)[C@H](Cc1ccccc1)NC(=O)CNC(=O)CN)C(=O)N[C@@H](CCCNC(=N)N)C(=O)N1CCC[C@H]1C(=O)N[C@@H](CCCCN)C(=O)N[C@@H](CC(C)C)C(=O)N[C@@H](CCCCN)C(=O)N[C@@H](Cc1c[nH]c2ccccc12)C(=O)N[C@@H](CC(=O)O)C(=O)N[C@@H](CC(N)=O)C(=O)N[C@@H](CCC(N)=O)C(=O)O [Dynorphin 2-17] | -9.77% | -26.7% | 26.1% | 1.32% | -2.11% | 1.95% | 0.179% | -4.16% | -10.2% | -2.49% | -3.33% | -7.18% | -15.9% | -1.91% | -4.71% | -0.523% | -1.13% | 72.7%
CC[C@H](C)[C@H](NC(=O)[C@H](CCCNC(=N)N)NC(=O)[C@H](CCCNC(=N)N)NC(=O)[C@H](CC(C)C)NC(=O)[C@H](Cc1ccccc1)NC(=O)CNC(=O)CNC(=O)[C@@H](N)Cc1ccc(O)cc1)C(=O)N[C@@H](CCCNC(=N)N)C(=O)N1CCC[C@H]1C(=O)N[C@@H](CCCCN)C(=O)N[C@@H](CC(C)C)C(=O)N[C@@H](CCCCN)C(=O)O [Dynorphin 1-13] | 13.2% | -40.8% | 52.9% | -0.272% | -1.44% | -2.31% | -1.58% | -2.15% | -8.16% | -0.575% | -5.55% | -2.31% | -22.4% | -2% | -4.85% | 0.0731% | -1.13% | 136%
